Measurements reported in patent publication US20200246316A1, “METHODS OF TREATING POST-SURGICAL PAIN WITH A THIAZOLINE ANTI-HYPERALGESIC AGENT” (CERSCI THERAPEUTICS, INC., priority 2019, published 2020).
Entries after “also recorded” stand apart in the source; their conditions may differ. Where a name gives a salt, the structure may show the parent alone. Read-outs that look alike come from different tables or passages of the source.

Tests used:
[1] = Solubility in organic/aqueous solvents; format: physicochemical
Procedure: Polymorphic screening of crystalline Compound 1 was performed using 15 organic/aqueous solvent systems, including: n-heptane, methanol, toluene, acetone, tetrahydrofuran, iso-propanol, ethanol, ethyl acetate, iso-propyl acetate, tert-butylmethyl ether, […], 10% water/90% tetrahydrofuran, tert-butyl alcohol, water, and 1:1 tert-butyl alcohol:water.

peroxynitrite (PN) = test: Chemical-based assays of peroxynitrite (PN) oxidation; format: biochemical
Description: In cell-based assays of PN-mediated cytotoxicity, Compound 1 is protective. […] Chemically, Compound 1 can also react stoichiometrically with peroxynitrite to form a para-nitro adduct. Without being bound by theory, by targeting and removing peroxynitrite and peroxide, Compound 1 can disrupt the ensuing cascades that lead to hypersensitivity (protein modification, ion channel hyperexcitation) thus providing a long duration event in terms of pain relief.

[2] = system: mouse model of severe incision; test: Mouse model of severe incision; format: in vivo; details: 10 mg/kg IP daily for 15 days; Days 1, 3, 6, 8, 10, 13, 15 and 21 after incision; FIG. 13; mono-hydrochloride
Description: Two incisional pain models were used to assess Compound 1 effects on hyperalgesia. The first model is referred to as the Brennan model in which, under anesthesia, a 1 cm longitudinal incision to the skin and underlying fascia of a rat hindpaw is made. The second is a variation but is a more invasive procedure in which the skin and muscle are spread apart using forceps which creates a longer-lasting hypersensitivity.
In a mouse model of severe incision (tissue and muscle spread with forceps), animals were at baseline for mechanical thresholds prior to incision and then given a daily dose of Compound 1 (10 mg/kg IP) or vehicle for 15 days.

[3] = Effect of food on oral bioavailability in rats; format: in vivo, rat
Procedure: The effect of food on oral bioavailability was determined.

[4] = Rat brain distribution and pharmacokinetic study; format: in vivo
Description: A rat brain distribution study performed in order to determine standard pharmacokinetic parameters and to assess the brain penetration properties of Compound 1 administered orally and intravenously.

[5] = Red Blood Cell (RBC) partitioning; format: in vitro ADME; details: 60 min post-exposure
Description: The compound distributed readily in tissues with a steady-state volume of distribution of 1.7 L/kg.

Stability in plasma = format: in vitro ADME
Description: Upon administration, Compound 1 is stable in both plasma and hepatocytes from rat, dog and human.

CYP1A2 = biological target: T1, CYP1A2 (Homo sapiens, UniProt P05177); test: CYP inhibition in human liver microsomes; format: in vitro ADME
T1 construct: tissue BD Gentest; host or cells: human liver microsomes
T1 sequence (P05177 1-516): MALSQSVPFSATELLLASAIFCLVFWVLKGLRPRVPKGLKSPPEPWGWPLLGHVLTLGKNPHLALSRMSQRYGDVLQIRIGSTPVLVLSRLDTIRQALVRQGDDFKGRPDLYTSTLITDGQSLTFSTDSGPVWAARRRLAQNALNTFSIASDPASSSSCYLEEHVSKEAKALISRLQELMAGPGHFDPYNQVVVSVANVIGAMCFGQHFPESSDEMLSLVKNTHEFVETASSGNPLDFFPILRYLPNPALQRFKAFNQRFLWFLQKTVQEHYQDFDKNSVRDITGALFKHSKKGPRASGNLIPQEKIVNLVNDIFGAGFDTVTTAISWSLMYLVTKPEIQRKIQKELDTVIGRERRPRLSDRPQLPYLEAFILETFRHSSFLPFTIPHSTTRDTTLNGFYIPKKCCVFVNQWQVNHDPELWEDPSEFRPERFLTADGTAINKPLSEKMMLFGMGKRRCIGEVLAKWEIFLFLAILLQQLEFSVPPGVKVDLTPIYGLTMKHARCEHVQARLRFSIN
Procedure: (§1) At varying concentrations, Compound 1 was incubated with human liver microsomes (HLM) in the presence of known substrates (see below) of specific CYP isoforms, in order to measure inhibition induced by Compound 1. Microsomes were incubated with known inhibitors (positive controls) of each CYP isoform, in the presence of substrate, in order to measure the metabolic activity of the microsomes.

CYP2C19 = biological target: T2, CYP2C19 (Homo sapiens, UniProt P33261); test: CYP inhibition in human liver microsomes; format: in vitro ADME
T2 construct: tissue BD Gentest; host or cells: human liver microsomes
T2 sequence (P33261 whole entry): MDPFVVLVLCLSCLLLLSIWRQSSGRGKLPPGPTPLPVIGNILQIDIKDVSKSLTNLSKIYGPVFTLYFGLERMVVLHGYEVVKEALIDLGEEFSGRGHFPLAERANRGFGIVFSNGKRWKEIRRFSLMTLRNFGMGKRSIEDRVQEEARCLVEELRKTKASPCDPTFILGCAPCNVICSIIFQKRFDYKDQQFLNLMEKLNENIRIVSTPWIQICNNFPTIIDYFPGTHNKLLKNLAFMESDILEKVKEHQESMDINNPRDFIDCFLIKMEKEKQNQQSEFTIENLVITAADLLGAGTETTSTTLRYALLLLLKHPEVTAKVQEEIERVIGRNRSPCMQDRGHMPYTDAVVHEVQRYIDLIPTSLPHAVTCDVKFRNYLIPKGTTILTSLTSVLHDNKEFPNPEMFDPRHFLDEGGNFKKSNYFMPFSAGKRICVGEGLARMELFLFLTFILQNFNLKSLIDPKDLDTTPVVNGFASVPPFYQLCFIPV
Procedure: as §1

CYP2C9 = biological target: T3, CYP2C9 (Homo sapiens, UniProt P11712); test: CYP inhibition in human liver microsomes; format: in vitro ADME
T3 construct: tissue BD Gentest; host or cells: human liver microsomes
T3 sequence (P11712 whole entry): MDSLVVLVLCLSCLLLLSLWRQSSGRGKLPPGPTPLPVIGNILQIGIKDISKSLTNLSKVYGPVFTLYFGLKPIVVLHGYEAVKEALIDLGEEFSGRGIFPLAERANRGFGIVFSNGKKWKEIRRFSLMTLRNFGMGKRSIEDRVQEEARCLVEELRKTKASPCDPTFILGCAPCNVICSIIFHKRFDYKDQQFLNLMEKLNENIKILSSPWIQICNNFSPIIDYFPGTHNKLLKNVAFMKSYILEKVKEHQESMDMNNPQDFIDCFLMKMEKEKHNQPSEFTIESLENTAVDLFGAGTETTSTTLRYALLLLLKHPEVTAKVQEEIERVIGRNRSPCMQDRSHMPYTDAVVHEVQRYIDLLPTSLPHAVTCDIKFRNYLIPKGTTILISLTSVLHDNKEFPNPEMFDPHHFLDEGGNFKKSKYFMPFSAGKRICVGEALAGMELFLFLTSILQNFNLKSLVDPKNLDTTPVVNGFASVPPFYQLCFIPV
Procedure: as §1

CYP2D6 = biological target: T4, CYP2D6 (Homo sapiens, UniProt P10635); test: CYP inhibition in human liver microsomes; format: in vitro ADME
T4 construct: tissue BD Gentest; host or cells: human liver microsomes
T4 sequence (P10635 whole entry): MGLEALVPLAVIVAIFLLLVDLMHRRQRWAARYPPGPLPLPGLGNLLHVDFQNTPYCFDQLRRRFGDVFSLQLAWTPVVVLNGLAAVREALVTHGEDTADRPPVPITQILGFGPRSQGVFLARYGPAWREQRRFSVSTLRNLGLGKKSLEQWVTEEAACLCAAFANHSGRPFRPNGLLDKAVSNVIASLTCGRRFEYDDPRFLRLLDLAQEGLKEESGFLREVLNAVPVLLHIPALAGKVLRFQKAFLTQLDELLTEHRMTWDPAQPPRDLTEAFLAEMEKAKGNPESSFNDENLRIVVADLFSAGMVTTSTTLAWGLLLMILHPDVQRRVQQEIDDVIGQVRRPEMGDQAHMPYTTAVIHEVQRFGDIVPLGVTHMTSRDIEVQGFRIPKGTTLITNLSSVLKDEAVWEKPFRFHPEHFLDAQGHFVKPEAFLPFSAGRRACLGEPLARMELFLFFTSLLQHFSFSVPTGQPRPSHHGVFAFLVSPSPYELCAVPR
Procedure: as §1

CYP3A4 = biological target: T5, CYP3A4 (Homo sapiens, UniProt P08684); test: CYP inhibition in human liver microsomes; format: in vitro ADME
T5 construct: tissue BD Gentest; host or cells: human liver microsomes
T5 sequence (P08684 whole entry): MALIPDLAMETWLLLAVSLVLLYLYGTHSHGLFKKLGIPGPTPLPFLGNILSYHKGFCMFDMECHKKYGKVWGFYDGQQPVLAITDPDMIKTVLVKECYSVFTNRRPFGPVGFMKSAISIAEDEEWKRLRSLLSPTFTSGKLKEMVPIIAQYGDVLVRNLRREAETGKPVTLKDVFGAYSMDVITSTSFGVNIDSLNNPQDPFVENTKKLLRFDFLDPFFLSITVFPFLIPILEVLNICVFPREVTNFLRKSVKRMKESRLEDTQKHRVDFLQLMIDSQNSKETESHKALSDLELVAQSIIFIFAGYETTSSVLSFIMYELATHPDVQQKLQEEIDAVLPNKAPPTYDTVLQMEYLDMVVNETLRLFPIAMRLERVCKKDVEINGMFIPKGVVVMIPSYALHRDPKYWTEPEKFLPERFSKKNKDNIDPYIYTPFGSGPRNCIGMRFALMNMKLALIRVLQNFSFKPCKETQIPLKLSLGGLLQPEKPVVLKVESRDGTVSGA
Procedure: as §1

OCT = biological target: T6, OCT (Homo sapiens, UniProt O15245); test: Inhibition of uptake (SLC) transporters; format: in vitro ADME; details: OCT1; HEK293 cells, probe [14C]-tetraethylammonium bromide (5 μM), 0.3-600 μM tested
T6 construct: expressed in transfected cells; host or cells: HEK293 cells
T6 sequence (O15245 whole entry): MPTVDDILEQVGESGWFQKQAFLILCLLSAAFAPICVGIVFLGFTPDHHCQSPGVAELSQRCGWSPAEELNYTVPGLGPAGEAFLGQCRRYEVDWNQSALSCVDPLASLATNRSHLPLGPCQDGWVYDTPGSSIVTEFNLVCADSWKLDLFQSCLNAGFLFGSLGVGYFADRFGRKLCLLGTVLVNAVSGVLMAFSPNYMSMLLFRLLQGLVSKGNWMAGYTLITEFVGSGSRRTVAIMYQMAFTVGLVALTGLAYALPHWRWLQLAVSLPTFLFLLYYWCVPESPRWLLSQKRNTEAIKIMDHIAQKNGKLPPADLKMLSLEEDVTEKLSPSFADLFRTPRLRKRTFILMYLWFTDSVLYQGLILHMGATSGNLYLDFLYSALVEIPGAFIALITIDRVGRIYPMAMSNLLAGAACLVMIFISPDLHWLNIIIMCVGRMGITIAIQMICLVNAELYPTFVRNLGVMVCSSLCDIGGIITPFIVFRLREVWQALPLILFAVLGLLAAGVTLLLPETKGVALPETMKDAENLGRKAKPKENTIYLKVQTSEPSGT

CC1(C)SC(Nc2ccccc2O)=N[C@@H]1C(=O)O [Compound 1, (R)-2-(2-hydroxyphenylamino)-5,5-dimethyl-4,5-dihydrothiazole-4-carboxylic acid mono-hydrochloride]
solubility ([1]; 10% water/tetrahydrofuran): sparingly soluble | solubility ([1]; 10% water:iso-propyl acetate): sparingly soluble | solubility ([1]; acetone): less than sparingly soluble | solubility ([1]; ethanol): sparingly soluble | solubility ([1]; ethyl acetate): less than sparingly soluble | solubility ([1]; iso-propanol): sparingly soluble | solubility ([1]; iso-propyl acetate): less than sparingly soluble | solubility ([1]; methanol): freely soluble | solubility ([1]; n-heptane): less than sparingly soluble | solubility ([1]; tert-butyl alcohol): less than sparingly soluble | solubility ([1]; tert-butyl alcohol:water (1:1)): freely soluble | solubility ([1]; tert-butyl methyl ether): less than sparingly soluble | solubility ([1]; tetrahydrofuran): less than sparingly soluble | solubility ([1]; toluene): less than sparingly soluble | solubility ([1]; water): sparingly soluble | PN-mediated oxidation of small-molecule organic substrates such as luminol (peroxynitrite (PN)): inhibits PN-mediated oxidation | hyperalgesia [2]: protected from hyperalgesia; also recorded: did not experience hyperalgesia | peak plasma concentrations in fasted compared to fed rats ([3]; 10 mg/kg): significantly increased | difference in pharmacokinetic properties fed vs fasted ([3]; 100 mg/kg oral): No statistically significant differences | oral absorption ([3]; fed and fasted rats, 10 and 100 mg/kg): well and rapidly absorbed | peak plasma concentration ([4]; 30 mg/kg oral): 9 µg/mL | time to peak plasma concentration ([4]; 30 mg/kg oral): ≤ 1 h | bioavailability ([4]; rat, in vivo, 30 mg/kg oral dose): 111% | half-life ([4]; rat, in vivo, 30 mg/kg oral dose, read-out: terminal half-life (converted)): 1.6 h | Kp at 1 h ([4]; rat, in vivo, 1 h after IV administration, read-out: brain-to-plasma concentration ratio): 0.02 | brain/tissue distribution ([4]; rat, in vivo, mono-hydrochloride): distributes to tissues but not to brain to an appreciable extent; also recorded: peripherally restricted | KRBC/PL ([5]; dog): < 0.25 | KRBC/PL ([5]; human): < 0.25 | KRBC/PL ([5]; monkey): < 0.25 | KRBC/PL ([5]; rat): < 0.25 | stability in plasma (Stability in plasma; dog): stable | stability in plasma (Stability in plasma; human): stable | stability in plasma (Stability in plasma; rat): stable | CYP inhibition (CYP1A2; CYP1A2, up to 100 μM): did not inhibit | IC50 (CYP1A2; CYP1A2, read-out: IC50): > 100 µM | IC50 (CYP1A2; human liver microsomes, known substrate of the CYP isoform, read-out: IC50 (μM) CYP 1A2): > 100 µM | CYP inhibition (CYP2C19; CYP2C19, up to 100 μM): did not inhibit | IC50 (CYP2C19; CYP2C19, read-out: IC50): > 100 µM | IC50 (CYP2C19; human liver microsomes, known substrate of the CYP isoform, read-out: IC50 (μM) CYP 2C19): > 100 µM | CYP inhibition (CYP2C9; CYP2C9, up to 100 μM): did not inhibit | IC50 (CYP2C9; CYP2C9, read-out: IC50): > 100 µM | IC50 (CYP2C9; human liver microsomes, known substrate of the CYP isoform, read-out: IC50 (μM) CYP 2C9): > 100 µM | CYP inhibition (CYP2D6; CYP2D6, up to 100 μM): did not inhibit | IC50 (CYP2D6; CYP2D6, read-out: IC50): > 100 µM | IC50 (CYP2D6; human liver microsomes, known substrate of the CYP isoform, read-out: IC50 (μM) CYP 2D6): > 100 µM | CYP inhibition (CYP3A4; CYP3A4, up to 100 μM): did not inhibit | IC50 (CYP3A4; CYP3A4, read-out: IC50): > 100 µM | IC50 (CYP3A4; human liver microsomes, known substrate of the CYP isoform, read-out: IC50 (μM) CYP 3A4): > 100 µM | IC50 (OCT): > 600 µM
